# Test results taken from patent publication US20100197610A1, “FRUCTOSE 1, 6 BISPHOSPHATE - A NOVEL ANTICONVULSANT DRUG” (Baylor College of Medicine, priority 2007, published 2010).
# Assays:
# [1] = Capillary depletion of brain samples (FDP in stripped vs whole cortex); assay type: in vivo, Sprague-Dawley rats
# Method: (§1) Actual levels of FDP were determined by monitoring absorbance of reduced nicotinamide adenine dinucleotide (NADH) and treating the sample with aldolase (EC 4.1.2.13, 45 units mg-1 diluted 1:27 with distilled water), the enzyme which cleaves FDP into dihydroxyacetone phosphate (DAP) and D-glyceraldehyde 3-phosphate (GAP). DAP and GAP are interconverted by the enzyme triosephosphate isomerase (TIM, EC 5.3.3.1, 5290 units mg-1 diluted 1:120 with distilled water). […] After 5 min the absorbance was read 3 times at 340 nm, each reading 3 min apart. The average of these readings is the initial absorbance (Ai). This step removes any DAP or GAP in the sample and determines the baseline absorbance. Aldolase (0.01 ml) was then added and mixed to cleave FDP into DAP and GAP. Nine minutes after addition of the aldolase, the final absorbance (Af) was determined by 3 readings at 340 nm, each 6 minutes apart. The concentration of FDP in the sample was proportional to the difference in the initial and final absorbance. Two moles of NADH are oxidized for each mole of FDP. Blanks and a FDP standard sample were run in parallel with every assay. Each blank had 1.6 ml of the TEA buffer, 1.4 ml water and the mixture of TIM and GDH. […] Levels of FDP in blood were determined per ml, while levels in tissue samples were determined as a function of tissue weight. […]
# [2] = in vivo; set-up: species or system rats; details: Sprague-Dawley, rat, po
# Method: as §1, with “water). Glycerol-3-phosphate dehydrogenase (GDH, EC 1.1.1.8, 252 units mg-1 diluted 1:100 with distilled water) catalyzes the reduction of DAP by NADH. For the FDP measurements, 1.5 ml of tetraethyl ammonium buffer (TEA, 0.4 mol l-1, pH 7.6 with EDTA 40 mmol l-1) was added to 1 ml of the sample in a 4 ml cuvette.” for “water).”, “Aldolase (0.01 ml) was then added and mixed to cleave FDP into DAP and GAP.” left out, “absorbance.” for “absorbance. Two moles of NADH are oxidized for each mole of FDP. Blanks and a FDP standard sample were run in parallel with every assay. Each blank had 1.6 ml of the TEA buffer, 1.4 ml water and the mixture of TIM and GDH.”
# [3] = test system: spontaneous seizures after pilocarpine-induced status epilepticus; assay: Oral FDP against spontaneous seizures after pilocarpine-induced status epilepticus; assay type: in vivo; details: FDP 0.5% in drinking water
# Method: Animals (n=14) were treated with pilocarpine to induce status epilepticus and subsequent spontaneous seizures. Four weeks later daily observation was begun and the number of seizures per day was determined for at least 6 days. The mean number of seizures per day over a 6 day period was determined for each animal and this was normalized to 100%. Half of the animals then had FDP added to the drinking water at a concentration of 0.5%. The number of seizures on each day was determined for each animal and calculated as percent of the baseline. The mean (±SEM) across animals in each treatment group was then calculated and plotted as a function of the days of treatment. […] Overall, the data was analyzed with a 2-way ANOVA comparing drug treatment against time and baseline rate of seizures. […] Post-hoc analysis determined that specifically on day 9 and 10 (*) the control was different than FDP-treated. Thus, oral administration of FDP has anticonvulsant activity against the generalized tonic-clonic seizures that are observed after pilocarpine-induced status epilepticus.
# [4] = Preliminary studies of efficacy, trisodium vs dicalcium salt of FDP; assay type: in vivo
# [5] = Markov et al., 2000; cited from earlier work
smiles,measurement,setting,value
"O=C(COP(=O)(O)O)[C@@H](O)[C@H](O)[C@H](O)COP(=O)(O)O [F1,6BP, Fructose-1,6-bisphosphate]",ratio of FDP in the stripped cortex to the FDP in whole cortex,"[1]; animals treated with FDP, n=7",0.91±0.01
same,levels of FDP in the endothelial cells compared to control,[1]; sacrificed ≦2 hours or more than 12 hours after FDP,no difference
same,concentration at 7 days,[2],22200 ± 3300 ng/mL
same,FDP levels in the brain,[2]; 7 days,0.50 ± 0.024 mg/g
same,seizures per day (percent of baseline) vs non-treatment control group,[3]; 2-way ANOVA,significantly different
same,animals having a seizure by day 7,[3]; 7 animals,1
same,efficacy of trisodium salt vs dicalcium salt,[4],no difference in efficacy
same,FDP in blood of humans after administration of FDP,[5],3.39 mg/dL
